Here are results for 31 compounds from patent US9000022B2 (Exelixis Patent Company LLC, priority 2005, dated 2015).

For this assay, the system named is LXRα and/or LXRβ. The assay is described as follows: Co-transfection assay (LXRE luciferase reporter, CV-1 cells). The assay is classed as cell-based, human. Conditions: tested as described in Example 33; IC50 or EC50 for LXRα and/or LXRβ, isoform not specified; read-out: activity (IC50 or EC50 for LXR). The procedure, abridged: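 CV-1 cells transiently co-transfected with full-length human LXRα or LXRβ plus RXRα, an LXRE×1-Tk-luciferase reporter and a β-galactosidase control. Compounds incubated 20 h at 37 °C (≤1% DMSO; screen at 10 μM final); luciferase read after lysis. EC50/IC50 from 8-point half-log curves (4 wells per point, ≥3 experiments); efficacy relative to a reference agonist high control and DMSO.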

On to `CCS(=O)(=O)c1cccc(-c2ccc(-n3cc(C(C)(C)O)nc3-c3c(F)cccc3F)c(C)c2)c1` [Example 194, 2-(2-(2,6-difluorophenyl)-1-(3′-(ethylsulfonyl)-3-methylbiphenyl-4-yl)-1H-imidazol-4-yl)propan-2-ol], for which the IC50 or EC50 (potency, activation or inhibition) is less than 1000 nM.
Take `Cc1cc(-c2cccc(S(C)(=O)=O)c2)ccc1-n1cc(C(C)(C)O)nc1-c1ccccc1C(C)C` [Example 195, 2-(2-(2-isopropylphenyl)-1-(3-methyl-3′-(methylsulfonyl)biphenyl-4-yl)-1H-imidazol-4-yl)propan-2-ol]: the IC50 or EC50 (potency, activation or inhibition) was less than 1000 nM.
As to `CCS(=O)(=O)c1cccc(-c2ccc(-n3cc(C(C)(C)O)nc3-c3ccccc3C(C)C)c(C)c2)c1` [Example 196, 2-(1-(3′-(ethylsulfonyl)-3-methyl-biphenyl-4-yl)-2-(2-isopropyl-phenyl)-1H-imidazol-4-yl)propan-2-ol], the IC50 or EC50 (potency, activation or inhibition) was less than 1000 nM.
Take `Cc1cc(-c2cccc(S(C)(=O)=O)c2)ccc1-c1nc(C(C)(C)O)cn1-c1c(Cl)cccc1Cl` [Example 197, 2-(1-(2,6-dichlorophenyl)-2-(3-methyl-3′-(methylsulfonyl)biphenyl-4-yl)-1H-imidazol-4-yl)propan-2-ol]: the IC50 or EC50 (potency, activation or inhibition) is less than 1000 nM.
Take `CC(C)(O)c1cn(-c2ccc(-c3cccc(S(C)(=O)=O)c3)cc2)c(-c2ccccc2C(F)(F)F)n1` [Example 198, 2-{1-[3′-(methylsulfonyl)biphenyl-4-yl]-2-[2-(trifluoromethyl)phenyl]-1H-imidazol-4-yl}propan-2-ol]: the IC50 or EC50 (potency, activation or inhibition) is less than 1000 nM.
The result for `CC(C)(O)c1cn(-c2ccc(-c3ccc(S(C)(=O)=O)cc3)cc2)c(-c2ccccc2C(F)(F)F)n1` [Example 199, 2-{1-[4′-(methylsulfonyl)biphenyl-4-yl]-2-[2-(trifluoromethyl)phenyl]-1H-imidazol-4-yl}propan-2-ol] reads 1000 to 10000 nM; that for `CCS(=O)(=O)c1cccc(-c2ccc(-n3cc(C(C)(C)O)nc3-c3ccccc3C(F)(F)F)cc2)c1` [Example 200, 2-{1-[3′-(ethylsulfonyl)biphenyl-4-yl]-2-[2-(trifluoromethyl)phenyl]-1H-imidazol-4-yl}propan-2-ol], less than 1000 nM; that for `CC(C)(O)c1cn(-c2cccc(-c3cccc(S(C)(=O)=O)c3)c2)c(-c2ccccc2C(F)(F)F)n1` [Example 201, 2-{1-[3′-(methylsulfonyl)biphenyl-3-yl]-2-[2-(trifluoromethyl)phenyl]-1H-imidazol-4-yl}propan-2-ol], less than 1000 nM.
For the compound `CC(C)(O)c1cn(-c2ccc(-c3cc(C(F)(F)F)ccc3F)cc2)c(-c2ccccc2C(F)(F)F)n1` [Example 220, 2-{1-[2′-fluoro-5′-(trifluoro-methyl)biphenyl-4-yl]-2-[2-(trifluoro-methyl)phenyl]-1H-imidazol-4-yl}propan-2-ol], the IC50 or EC50 (potency, activation or inhibition) was less than 1000 nM.
Consider `COc1ncccc1-c1ccc(-n2cc(C(C)(C)O)nc2-c2ccccc2C(F)(F)F)cc1` [Example 274, 2-(1-{4-[2-(methyloxy)pyridin-3-yl]phenyl}-2-[2-(trifluoro-methyl)phenyl]-1H-imidazol-4-yl)propan-2-ol], for which the IC50 or EC50 (potency, activation or inhibition) was in the range of 1000 to 10000 nM.
For the compound `CNS(=O)(=O)c1cccc(-c2ccc(-n3cc(C(C)(C)O)nc3-c3ccccc3C(F)(F)F)cc2)c1` [Example 344, 4′-{4-(1-hydroxy-1-methylethyl)-2-[2-(trifluoromethyl)phenyl]-1H-imidazol-1-yl}-N-methylbiphenyl-3-sulfonamide], the IC50 or EC50 (potency, activation or inhibition) was less than 1000 nM.
In the case of `CS(=O)(=O)c1cccc(-c2ccc(-c3[nH]c(C(F)(F)F)nc3-c3ccccc3Cl)s2)c1` [Example 357, 4-(2-chlorophenyl)-5-{5-[3-(methylsulfonyl)phenyl]-2-thienyl}-2-(trifluoromethyl)-1H-imidazole], the IC50 or EC50 (potency, activation or inhibition) is less than 1000 nM.
For `CS(=O)(=O)c1cccc(-c2ccc(-n3cc(C(F)(F)F)nc3-c3ccccc3Cl)cc2)c1` [Example 358, 2-(2-chlorophenyl)-1-[3′-(methyl-sulfonyl)biphenyl-4-yl]-4-(trifluoro-methyl)-1H-imidazole], the IC50 or EC50 (potency, activation or inhibition) is less than 1000 nM.
`CS(=O)(=O)c1cccc(-c2ccc(-c3[nH]c(C(F)(F)F)nc3-c3ccccc3Cl)cc2)c1` [Example 359, 4-(2-chlorophenyl)-5-[3′-(methyl-sulfonyl)biphenyl-4-yl]-2-(trifluoro-methyl)-1H-imidazole]: the IC50 or EC50 (potency, activation or inhibition) was less than 1000 nM.
As for `NS(=O)(=O)c1cccc(-c2ccc(-n3cc(C(F)(F)F)nc3-c3ccccc3Cl)cc2)c1` [Example 360, 4′-[2-(2-chlorophenyl)-4-(trifluoro-methyl)-1H-imidazol-1-yl]biphenyl-3-sulfonamide], the IC50 or EC50 (potency, activation or inhibition) is less than 1000 nM.
As to `NS(=O)(=O)c1cccc(-c2ccc(-c3[nH]c(C(F)(F)F)nc3-c3ccccc3Cl)cc2)c1` [Example 361, 4′-[4-(2-chlorophenyl)-2-(trifluoro-methyl)-1H-imidazol-5-yl]biphenyl-3-sulfonamide], the IC50 or EC50 (potency, activation or inhibition) was 1000 to 10000 nM.
With `NS(=O)(=O)c1cccc(-c2ccc(-c3[nH]c(C(F)(F)F)nc3-c3ccccc3Cl)s2)c1` [Example 362, 3-{5-[4-(2-chlorophenyl)-2-(trifluoro-methyl)-1H-imidazol-5-yl]-2-thienyl}benzenesulfonamide], the IC50 or EC50 (potency, activation or inhibition) is less than 1000 nM.
As for `FC(F)(F)c1cn(-c2ccc(Br)cc2)c(-c2ccccc2C(F)(F)F)n1` [Example 363, 1-(4-bromophenyl)-4-(trifluoromethyl)-2-[2-(trifluoromethyl)phenyl]-1H-imidazole], the IC50 or EC50 (potency, activation or inhibition) lay in the range of 1000 to 10000 nM.
For the compound `CS(=O)(=O)c1cccc(-c2ccc(-n3cc(C(F)(F)F)nc3-c3ccccc3C(F)(F)F)cc2)c1` [Example 364, 1-[3′-(methylsulfonyl)biphenyl-4-yl]-4-(trifluoromethyl)-2-[2-(trifluoro-methyl)phenyl]-1H-imidazole], the IC50 or EC50 (potency, activation or inhibition) was less than 1000 nM.
On to `NS(=O)(=O)c1cccc(-c2ccc(-n3cc(C(F)(F)F)nc3-c3ccccc3C(F)(F)F)cc2)c1` [Example 365, 4′-{4-(trifluoromethyl)-2-[2-(trifluoromethyl)phenyl]-1H-imidazol-1-yl}biphenyl-3-sulfonamide], for which the IC50 or EC50 (potency, activation or inhibition) is less than 1000 nM.
Consider `CCOC(=O)c1cn(-c2ccc(Br)cc2)c(-c2ccccc2C(F)(F)F)n1` [Example 366, ethyl 1-(4-bromophenyl)-2-[2-(trifluoromethyl)phenyl]-1H-imidazole-4-carboxylate], for which the IC50 or EC50 (potency, activation or inhibition) lay within 1000 to 10000 nM.
With `CCOC(=O)c1cn(-c2ccc(-c3cccc(S(C)(=O)=O)c3)cc2)c(-c2ccccc2C(F)(F)F)n1` [Example 367], the IC50 or EC50 (potency, activation or inhibition) was less than 1000 nM.
In the case of `FC(F)(F)c1cn(-c2ccc(Br)cn2)c(-c2ccccc2C(F)(F)F)n1` [Example 368, 5-bromo-2-{4-(trifluoromethyl)-2-[2-(trifluoro-methyl)phenyl]-1H-imidazol-1-yl}pyridine], the IC50 or EC50 (potency, activation or inhibition) lay in the range of 1000 to 10000 nM.
The figure for `CS(=O)(=O)c1cccc(-c2ccc(-n3cc(C(F)(F)F)nc3-c3ccccc3C(F)(F)F)nc2)c1` [Example 369, 5-[3-(methylsulfonyl)phenyl]-2-{4-(trifluoromethyl)-2-[2-(trifluoro-methyl)phenyl]-1H-imidazol-1-yl}pyridine] is less than 1000 nM; for `CS(=O)(=O)c1cccc(-c2ccc(-n3cc(C(F)(F)F)nc3-c3ccccc3Cl)nc2)c1` [Example 370, 2-[2-(2-chlorophenyl)-4-(trifluoro-methyl)-1H-imidazol-1-yl]-5-[3-(methylsulfonyl)phenyl]pyridine] it is less than 1000 nM; for `CC(C)S(=O)(=O)c1cccc(-c2ccc(-n3cc(C(F)(F)F)nc3-c3ccccc3C(F)(F)F)nc2)c1` [Example 372, 5-{3-[(1-methylethyl)sulfonyl]phenyl}-2-{4-(trifluoromethyl)-2-[2-(trifluoro-methyl)phenyl]-1H-imidazol-1-yl}pyridine] it is less than 1000 nM.
For the compound `CC(C)S(=O)(=O)c1cccc(-c2ccc(-n3cc(C(F)(F)F)nc3-c3ccccc3C(F)(F)F)cc2)c1` [Example 373, 1-{3′-[(1-methylethyl)sulfonyl]biphenyl-4-yl}-4-(trifluoromethyl)-2-[2-(trifluoromethyl)phenyl]-1H-imidazole], the IC50 or EC50 (potency, activation or inhibition) was less than 1000 nM.
Regarding `CC(C)(O)c1cn(-c2ccc(Br)cc2)c(-c2ccccc2C(F)(F)F)n1` [Example 374, 2-{1-(4-bromophenyl)-2-[2-(trifluoromethyl)phenyl]-1H-imidazol-4-yl}propan-2-ol], the IC50 or EC50 (potency, activation or inhibition) was in the range of 1000 to 10000 nM.
In the case of `CS(=O)(=O)Nc1cccc(-c2ccc(-n3cc(C(F)(F)F)nc3-c3ccccc3C(F)(F)F)cc2)c1` [Example 375, N-(4′-{4-(trifluoromethyl)-2-[2-(trifluoromethyl)phenyl]-1H-imidazol-1-yl}biphenyl-3-yl)methane-sulfonamide], the IC50 or EC50 (potency, activation or inhibition) was less than 1000 nM.
In the case of `CCOC(=O)c1cn(-c2ccc(-c3cccc(S(C)(=O)=O)c3)cc2)c(-c2ccccc2)n1` [Example 376, ethyl 1-[3′-(methylsulfonyl)biphenyl-4-yl]-2-phenyl-1H-imidazole-4-carboxylate], the IC50 or EC50 (potency, activation or inhibition) was less than 1000 nM.
On to `CCOC(=O)c1cn(-c2ccc(Br)cc2)c(-c2ccccc2Cl)n1` [Example 377, ethyl 1-(4-bromophenyl)-2-(2-chlorophenyl)-1H-imidazole-4-carboxylate], for which the IC50 or EC50 (potency, activation or inhibition) was in the range of 1000 to 10000 nM.
